Consider seven compounds from BindingDB's records for doi:10.1016/j.bmcl.2003.09.076 (Eli Lilly, 2003).

SMILES strings stand for the structures. pIC50, pKi: −log10 of the molar value.

A short description of test [1]: Cytotoxic activity in human liver Huh-7 cells.
A short description of test [2]: Binding affinity towards Protease using PNA assay […].
A short description of test [3]: Inhibitory activity against Protease using replicon assay […] at 50 uM concentration. Background: In antiviral work, replicon cells carry a viral genome segment that copies itself.

Usually pIC50 stands for −log10 of the IC50, conventionally taken in molar units. The low end stands for a large IC50, the high end for a small IC50. Usually pKi stands for −log10 of the Ki, conventionally taken in molar units. `CCCC(NC(=O)[C@@H]1[C@H]2CCC[C@H]2CN1C(=O)[C@@H](NC(=O)OC(C)C)C(C)C)C(=O)C(=O)N[C@@H](C)c1ccccc1` (stereo partly drawn) [((S)-2-Methyl-1-{(1S,3aR,6aS)-1-[1-((S)-1-phenyl-ethylaminooxalyl)-butylcarbamoyl]-hexahydro-cyclopenta[c]pyrrole-2-carbonyl}-propyl)-carbamic acid isopropyl ester]: in test [1], the pIC50 was less than 4.00. The compound also had a pKi in test [2] of 5.72. Compound `CCCC(NC(=O)[C@@H]1[C@H]2CCC[C@H]2CN1C(=O)[C@@H](NC(=O)OC(C)C)C(C)(C)C)C(=O)C(=O)Nc1ccccc1` (stereo partly drawn) [{(S)-2,2-Dimethyl-1-[(1S,3aR,6aS)-1-(1-phenylaminooxalyl-butylcarbamoyl)-hexahydro-cyclopenta[c]pyrrole-2-carbonyl]-propyl}-carbamic acid isopropyl ester] gave a negative logarithm of the Ki (pKi) in test [2] of 6.09. `CCCC(NC(=O)[C@@H]1[C@H]2CCC[C@H]2CN1C(=O)[C@@H](NC(=O)[C@H](O)C(C)C)C(C)C)C(=O)C(=O)Nc1ccccc1` (stereo partly drawn) [(1S,3aR,6aS)-2-[(S)-2-((R)-2-Hydroxy-3-methyl-butyrylamino)-3-methyl-butyryl]-octahydro-cyclopenta[c]pyrrole-1-carboxylic acid (1-phenylaminooxalyl-butyl)-amide] gave a pKi in test [2] of 5.74. Moreover, the pIC50 in test [3] was less than 4.00.

The compound `CCCC(NC(=O)[C@@H]1[C@H]2CCC[C@H]2CN1C(=O)[C@@H](NC(=O)[C@H](O)C(C)C)C(C)C)C(=O)C(=O)NC1CC1` (stereo partly drawn) [(1S,3aR,6aS)-2-[(S)-2-((R)-2-Hydroxy-3-methyl-butyrylamino)-3-methyl-butyryl]-octahydro-cyclopenta[c]pyrrole-1-carboxylic acid (1-cyclopropylaminooxalyl-butyl)-amide] gave a pIC50 in test [1] of less than 4.00. This compound showed a pKi in test [2] of 4.84. For the compound `CCCC(NC(=O)[C@@H]1[C@H]2CCC(F)(F)[C@H]2CN1C(=O)[C@@H](NC(=O)[C@H](O)C(C)C)C(C)C)C(=O)C(=O)NC1CC1` (stereo partly drawn) [(1S,3aR,6aS)-4,4-Difluoro-2-[(S)-2-((R)-2-hydroxy-3-methyl-butyrylamino)-3-methyl-butyryl]-octahydro-cyclopenta[c]pyrrole-1-carboxylic acid (1-cyclopropylaminooxalyl-butyl)-amide], the pKi in test [2] is 4.78. The compound `CCCC(NC(=O)[C@@H]1[C@H]2CCC(F)(F)[C@H]2CN1C(=O)[C@@H](NC(=O)OC(C)C)C(C)(C)C)C(=O)C(=O)N[C@@H](C)c1ccccc1` (stereo partly drawn) [((S)-1-{(1S,3aR,6aS)-4,4-Difluoro-1-[1-((S)-1-phenyl-ethylaminooxalyl)-butylcarbamoyl]-hexahydro-cyclopenta[c]pyrrole-2-carbonyl}-2,2-dimethyl-propyl)-carbamic acid isopropyl ester] gave a pIC50 in test [1] of less than 4.00. In test [2], this compound gave a pKi of 5.68. The compound `CCCC(NC(=O)[C@@H]1[C@H]2CCC(F)(F)[C@H]2CN1C(=O)[C@@H](NC(=O)OC(C)C)C(C)C)C(=O)C(=O)N[C@@H](C)c1ccccc1` (stereo partly drawn) [((S)-1-{(1S,3aR,6aS)-4,4-Difluoro-1-[1-((S)-1-phenyl-ethylaminooxalyl)-butylcarbamoyl]-hexahydro-cyclopenta[c]pyrrole-2-carbonyl}-2-methyl-propyl)-carbamic acid isopropyl ester] had a pIC50 in test [1] of less than 4.00. Also, the negative-log Ki (pKi) in test [2] is 5.17.
